The test system of this test is balb c 3T3 fibroblasts. Put plainly: Inhibition of PDGF-stimulated balb c 3T3 fibroblast proliferation (3H-thymidine incorporation). The class given is cell-based. Particulars: Mus musculus, BALB/c3T3; ^3 H-thymidine incorporation stimulated by PDGF in balb c 3T3 fibroblasts. The method, then: Measurement of inhibition of the balb c 3T3 fibroblast proliferation induced by a growth factor […]
Inhibition of the cell proliferation induced by a growth factor (for example PDGF) is evaluated by measuring the ^3 H-thymidine incorporation into balb c 3T3 fibroblasts.
The balb c 3T3 fibroblasts are cultivated at 37° C. with 5% of CO2 up to the point of subconfluence and are then placed for 24 hours under rest conditions in a serum-impoverished medium. They are subsequently pretreated for one hour with the test molecule and then stimulated for 24 hours with a growth factor (for example PDGF). ^3 H-Thymidine is incorporated over the last 2 hours. All these steps are performed at 37° C. with 5% of CO2.
The reaction is terminated by sucking off the reaction medium, detaching the cells and then filtering the lyzed cells through glass fiber filters.
The results are expressed as the percentage inhibition of the stimulation of ^3 H-thymidine incorporation due to the action of the growth factor.
(In general: Uptake of a labelled nucleoside into DNA is a usual measure of proliferation.)

Usually IC50 stands for the concentration needed to halve the response being measured. A low value points to higher potency.

For `N#CC(=Cc1cc2cccnc2n(-c2cc(Cl)cc(Cl)c2)c1=O)c1ccncc1` [Example 81, 3-[1-(3,5-dichlorophenyl)-1,2-dihydro-2-oxo-1,8-naphthyridin-3-yl]-2-(4-pyridyl)prop-2-enenitrile], 200 nM corresponded to half-maximal inhibition (IC50). In other words, the sub-micromolar range.

With `N#CC(=Cc1cc2cccnc2n(-c2cc(Cl)cc(Cl)c2)c1=O)c1cccnc1` [Example 78, 3-[1-(3,5-dichlorophenyl)-1,2-dihydro-2-oxo-1,8-naphthyridin-3-yl]-2-(3-pyridyl)prop-2-enenitrile], the IC50 amounted to 300 nM. Against the preceding compound, the IC50 is about 1.5-fold higher.
